In patent EP4792811A1, “S1PR4 REGULATOR COMPOUND FOR MUSCLE DISEASE TREATMENT AND APPLICATION THEREOF” (Shengyuan Zetong (Shanghai) Pharmaceutical Co., Ltd, priority 2023, dated 2025):

Experiments:
hS1P1 = target: T1, hS1P1 (Homo sapiens, UniProt P21453); test: Tango β-arrestin recruitment assay, Tango-hS1P1-CHO; type: cell-based; details: selectivity table; Tango-S1PR1-CHO-K1 cells
T1 construct: expressed in transfected cells; host or cells: CHO-K1
How it was run: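 CHO-K1 cells co-express receptor–V2 tail–NTEV–tTA, CTEV–truncated β-arrestin 2 and a tTA-driven luciferase reporter. 10,000 cells/well were plated for 20 h, then treated 20 h with 9 five-fold dilutions from 45 µM final, with luminescence read-out. BAF-312 positive control was 1 µM for S1P1 and 25 µM for S1P4. EC50 is mean ± SD, ≥2 determinations.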

hS1P4 = target: T2, hS1P4 (Homo sapiens, UniProt O95977); test: Tango β-arrestin recruitment assay, Tango-hS1P4-CHO; type: cell-based; details: selectivity table; Tango-S1PR4-CHO-K1 cells
T2 construct: expressed in transfected cells; host or cells: CHO-K1
T2 sequence (O95977 1-384): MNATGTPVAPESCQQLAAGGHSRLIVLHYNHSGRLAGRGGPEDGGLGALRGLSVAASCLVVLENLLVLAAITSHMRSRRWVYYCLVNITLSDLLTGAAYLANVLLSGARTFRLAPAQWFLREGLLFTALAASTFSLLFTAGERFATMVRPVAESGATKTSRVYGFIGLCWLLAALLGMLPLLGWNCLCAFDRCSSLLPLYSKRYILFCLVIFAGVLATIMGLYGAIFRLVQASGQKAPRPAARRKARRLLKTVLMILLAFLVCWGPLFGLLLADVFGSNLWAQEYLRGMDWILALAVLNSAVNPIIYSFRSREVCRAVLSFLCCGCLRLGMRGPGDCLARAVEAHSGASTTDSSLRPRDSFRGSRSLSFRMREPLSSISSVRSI
Text: The Tango assay detects ligand-dependent GPCR activity through the interaction between β-arrestin and GPCRs. […] The NTEV fragment and the tetracycline transactivator (tTA), an artificial transcription factor, are fused at the C-terminus of the GPCR, while the CTEV fragment is fused to human β-arrestin 2. To enhance the stability of the interaction between GPCR and β-arrestin, a short sequence from the C-terminus of the human arginine vasopressin receptor 2 (V2 tail) is inserted between the GPCR and NTEV. The V2 tail contains multiple GRK phosphorylation sites, which strengthen β-arrestin binding upon phosphorylation. The CTEV fragment carries the stabile point mutation S219P and is truncated at residue 221 to remove the autoinhibitory C-terminal tail. Meanwhile, β-arrestin 2 is truncated to lack the entire C-terminal tail (residues 383-410 deleted). This truncation confers robust stimulus-dependent receptor desensitization, thereby improving detection sensitivity compared with wild-type β-arrestin 2. The UAS reporter construct consists of upstream activating sequence (UAS) elements, a minimal CMV promoter, and a tTA-dependent luciferase reporter gene. Therefore, constructing Tango cells requires the co-transfection of the above three plasmids into host cells. Upon GPCR activation and β-arrestin recruitment, the TEV enzyme at the β-arrestin terminus cleaves tTA from the GPCR C-terminus. The released tTA initiates tTA-dependent luciferase transcription, and compound activity is ultimately determined by measuring luminescence intensity.
• 1) Tango cell line from was digested from the culture dish respectively. After cell counting, the cells were plated at a density of 10,000 cells per well with […] into a white opaque 96-well plate (add 60 µL D'Hanks to the surrounding wells), and incubated overnight (20 h) in a 5% CO2 incubator at 37°C. The cell density will reach approximately 90% the next day. • 2) After 20 h, 30 µL of serially diluted compound solution was added to each well. The control group was supplemented with 30 µL F12K complete medium. Each group had three replicate wells. • 3) Samples were collected after 20 h of drug treatment.
(All compounds were tested at a final concentration of 45 µM, with 9 serial dilutions at 5-fold intervals. 1 µM BAF-312 was used as the positive control for S1PR1, and 25 µM BAF-312 was used as the positive control for S1PR4.)
(§1) ^a β-arrestin recruitment activity based on Tango-S1PR1-CHO-K1 and Tango-S1PR4-CHO-K1 cells, expressed as mean EC50 values ± SD. ^b FLIPR assays were performed using S1PR2-CHO and S1PR5-CHO cell lines, expressed as mean EC50 values ± SD. ^c β-arrestin recruitment activity based on PathHunter CHO-K1-S1PR3 cells, expressed as mean EC50 values ± SD. Data are the mean of at least two independent determinations, reported as mean ± SD (standard deviation).

S1PR5 = target: T3, S1PR5 (Homo sapiens, UniProt Q9H228); test: FLIPR assay, S1PR5-CHO cell line; type: cell-based
T3 construct: expressed in transfected cells; host or cells: CHO
T3 sequence (Q9H228 whole entry, species assumed): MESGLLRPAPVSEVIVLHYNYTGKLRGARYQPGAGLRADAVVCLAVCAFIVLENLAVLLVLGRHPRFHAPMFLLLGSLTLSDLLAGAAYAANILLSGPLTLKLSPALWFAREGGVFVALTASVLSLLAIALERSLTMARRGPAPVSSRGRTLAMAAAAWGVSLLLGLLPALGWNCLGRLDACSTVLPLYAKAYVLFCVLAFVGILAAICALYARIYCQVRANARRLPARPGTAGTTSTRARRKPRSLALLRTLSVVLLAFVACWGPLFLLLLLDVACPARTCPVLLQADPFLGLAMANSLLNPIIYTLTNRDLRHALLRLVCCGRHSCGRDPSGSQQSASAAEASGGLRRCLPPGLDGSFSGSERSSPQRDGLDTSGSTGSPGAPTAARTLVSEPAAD
Procedure: as §1

[1] = system: S1PR4-R82C/NDUFA10-R217W double-mutant mice; test: In vivo efficacy in S1PR4-R82C/NDUFA10-R217W double-mutant muscular dystrophy mice; details: for grip strength (ratio of grip strength to body weight): after 21 days of treatment; for body weight gain trend: compared with the model group; for collagen deposition (collagen area ratio): after administration
Procedure: Experimental Animals: A total of 34 S1PR4-R82C/NDUFA10-R217W mice were divided into 6 groups as shown below.
Intragastric administration was initiated on Day 0, and body weight was measured daily during the experiment to adjust the drug dosage. Grip strength was measured at the beginning and end of the experiment to observe motor changes in mice. Changes in the limb grip strength, serum creatine kinase content, and muscle fibrosis/inflammation in mice were detected as indicators for evaluating drug efficacy.
The mouse was placed horizontally on the grip test board. The mouse's tail was held and pulled gently in the opposite direction without using excessive force. The tail was gradually pulled until the mouse released the grip force sensor. The maximum value recorded by the grip force sensor is the grip strength. The test was repeated for 3 times and the average value was taken.
After the completion of administration, blood was collected via the orbital sinus, allowed to stand for 30 minutes, centrifuged at 3000 rpm at 4°C for 15 minutes, and serum was extracted, stored frozen at -20°C, and detected in accordance with the kit instructions.
After the experiment, the tibialis anterior, extensor digitorum longus, and diaphragm of the mice were harvested, fixed, sectioned, and subjected to HE staining and Sirius Red staining to observe the degree of muscle fibrosis. The slice was subjected to immunofluorescence staining with F4/80 to observe the level of muscle inflammation.

LPS-induced sepsis model = test: LPS-induced sepsis myopathy (skeletal muscle atrophy) model; type: in vivo, mice; details: for atrophy of the tibialis anterior muscle: 14 days of LPS treatment; for survival rate: 14 days after LPS (1 mg/kg)
Text: Animal models of sepsis can be established by injecting exogenous toxins into animals. In this study, a sepsis model was established via intraperitoneal injection of lipopolysaccharide to observe the effects of compounds on the occurrence and development of acquired weakness. This is a widely used method for modeling sepsis.
A skeletal muscle atrophy model induced by lipopolysaccharide can simulate clinical muscle atrophy caused by sepsis.
Mice were given a single intraperitoneal injection of LPS (1 mg/kg), followed by 14 consecutive days of intraperitoneal injection of either vehicle (1% DMSO dissolved in physiological saline) or Compound 30. Body weight was measured daily. After 14 days of LPS treatment, the mice were anesthetized, and the gastrocnemius and tibialis anterior muscles were harvested.

[2] = 0.3 mg/kg intragastric once daily
[3] = 1 mg/kg intragastric once daily
[4] = 1 mg/kg intragastric once daily, after treatment
[5] = 3 mg/kg intragastric once daily

T1 sequence (P21453 whole entry): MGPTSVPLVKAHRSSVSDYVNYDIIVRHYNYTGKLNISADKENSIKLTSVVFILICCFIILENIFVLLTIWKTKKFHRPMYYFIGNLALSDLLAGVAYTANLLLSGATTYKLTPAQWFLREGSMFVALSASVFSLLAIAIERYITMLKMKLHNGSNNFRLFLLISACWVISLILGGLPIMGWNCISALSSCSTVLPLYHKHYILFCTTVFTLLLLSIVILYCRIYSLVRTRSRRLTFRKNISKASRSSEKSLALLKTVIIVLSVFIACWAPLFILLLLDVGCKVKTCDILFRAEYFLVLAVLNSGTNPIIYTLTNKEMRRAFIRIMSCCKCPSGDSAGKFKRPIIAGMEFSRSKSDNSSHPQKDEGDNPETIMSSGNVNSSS

## CCc1cc(/C(C)=N/OCc2ccc(-c3ccccc3)c(C)c2)ccc1CN1CC[C@H](C(=O)O)C1 [Compound 30]
hS1P1
  Emax: 102%
hS1P4
  Emax: 104%
S1PR5; compared with the endogenous ligand S1P
  agonist activity on S1PR5: no agonist activity
S1PR5; selectivity table, FLIPR, S1PR5-CHO
  Emax: 19.5%
[1]; [2]
  grip strength (ratio of grip strength to body weight): significantly increased
  body weight gain trend: no difference
[1]; [3]
  grip strength (ratio of grip strength to body weight): significantly increased
  collagen deposition (collagen area ratio): significantly reduced collagen deposition
  body weight gain trend: no difference
[1]; [4]
  macrophage content (F4/80 immunofluorescence, muscle inflammation): greatest reduction
  number of centrally nucleated fibers (HE staining): greatest reduction
  serum creatine kinase level: significantly reduced
[1]; [5]
  collagen deposition (collagen area ratio): significantly reduced collagen deposition
  body weight gain trend: no difference
[1]; 4 mg/kg (so in the source) intragastric once daily, after treatment
  serum creatine kinase level: significantly reduced
LPS-induced sepsis model; high dose (Compound 30: 10mg/kg intraperitoneal once daily), 10 mg/kg
  atrophy of the tibialis anterior muscle: significantly inhibited
LPS-induced sepsis model; low-dose group (0.1mg/kg intraperitoneal once daily)
  survival rate: 75%
LPS-induced sepsis model; medium dose (Compound 30: 1mg/kg intraperitoneal once daily), 1 mg/kg
  atrophy of the tibialis anterior muscle: significantly inhibited
LPS-induced sepsis model; medium-dose group (1mg/kg intraperitoneal once daily)
  survival rate: 50%
